Measurements published in ChEMBL document CHEMBL3243973, “Synthesis and antitussive activity of aminotetra- (and -hexa-) hydrodibenzofurans” (J Med Chem, 1977).

Tests used:
Cavia porcellus [1] = experiment: Antitussive activity in Dunkin-Hartley guinea pig assessed as inhibition of electrically-stimulated vagus nerve-induced cough at 100 mg/kg, po administered compound prior to electrical stimulation of vagus nerve measured at 20 to 40 mins relative to control; type: functional
Cavia porcellus [2] = experiment: Antitussive activity in po dosed Dunkin-Hartley guinea pig assessed as inhibition of electrically-stimulated vagus nerve-induced cough administered compound prior to electrical stimulation of vagus nerve measured at 20 to 40 mins; type: functional
Cavia porcellus [3] = experiment: Toxicity in Dunkin-Hartley guinea pig assessed as effect on central nervous system at 100 mg/kg, po; type: organism-based; design: dose 100 mg/kg, route oral; conditions: in vivo
Cavia porcellus [4] = experiment: Toxicity in Dunkin-Hartley guinea pig assessed as effect on cardiovascular system at 100 mg/kg, po; type: organism-based; design: dose 100 mg/kg, route oral; conditions: in vivo
Cavia porcellus [5] = experiment: Toxicity in Dunkin-Hartley guinea pig assessed as gastrointestinal effect at 100 mg/kg, po; type: organism-based; design: dose 100 mg/kg, route oral; conditions: in vivo

Row | Compound | inhibition in vivo at 100 mg/kg (Cavia porcellus [1]) [%] | also measured
1 | Cc1ccc2c(c1)[C@]1(C)CCC(=O)[C@H](NC(=O)CCN3CCCCC3)[C@@H]1O2 | 46 | 
2 | CC(=O)N1CCN(CCC(=O)N[C@H]2C(=O)CC[C@@]3(C)c4cc(C)ccc4O[C@@H]23)CC1 | 33 | 
3 | CCN1CCN(CCC(=O)N[C@H]2C(=O)CC[C@@]3(C)c4cc(C)ccc4O[C@@H]23)CC1 | 8 | 
4 | Cc1ccc2c(c1)[C@]1(C)CCC(=O)[C@H](NC(=O)CCCN(C)C)[C@@H]1O2 | 67 | 
5 | Cc1ccc2c(c1)[C@]1(C)CCC(=O)[C@H](NC(=O)CCCN3CCN(C)CC3)[C@@H]1O2 | 72 | 
6 | Cc1ccc2c(c1)[C@]1(C)CCC(=O)[C@H](NC(=O)CCCCN(C)C)[C@@H]1O2.Cl | > 80 | ED50 (Cavia porcellus [2]): 71 mg/kg
7 | Cc1ccc2c(c1)[C@]1(C)CCC(=O)[C@H](NC(=O)CCCCCN(C)C)[C@@H]1O2 | 25 | 
8 | Cc1ccc2c(c1)[C@]1(C)CC/C(=N\O)[C@H](NC(=O)CCN3CCN(C)CC3)[C@@H]1O2 | 55 | 
9 | Cc1ccc2c(c1)[C@]1(C)CC/C(=N\NC(N)=O)[C@H](NC(=O)CCN3CCN(C)CC3)[C@@H]1O2 | 25 | 
10 | Cc1ccc2c(c1)[C@]1(C)CCC(O)[C@H](NC(=O)CCN3CCN(C)CC3)[C@@H]1O2 (stereo partly drawn) | 12 | 
11 | Cc1ccc2c(c1)[C@]1(C)CCC3(OCCO3)[C@H](NC(=O)CCN3CCN(C)CC3)[C@@H]1O2 | 11 | 
12 | Cc1ccc2c(c1)[C@]1(C)CCC3(SCCS3)[C@H](NC(=O)CCN3CCN(C)CC3)[C@@H]1O2 | 46 | 
13 | Cc1ccc2c(c1)[C@]1(C)CCC[C@H](NC(=O)CCN3CCN(C)CC3)[C@@H]1O2 | 46 | 
14 | Cc1ccc2c(c1)[C@]1(C)CCC(O)[C@H](NCCCN3CCN(C)CC3)[C@@H]1O2 (stereo partly drawn) | 62 | 
15 | Cc1ccc2c(c1)[C@]1(C)CCC(=O)[C@H](NC(=O)OCCN3CCN(C)CC3)[C@@H]1O2 | 33 | 
16 | Cc1ccc2c(c1)[C@]1(C)CCC(=O)[C@H](NC(=O)CCOCCN(C)C)[C@@H]1O2 | 37 | 
17 | CC(=O)N[C@H]1C(=O)CC[C@@]2(C)c3cc(C)ccc3O[C@@H]12 | 25 | 
18 | CC(=O)c1cc(C)cc(C2(C)C=C(NC(=O)CCN3CCN(C)CC3)C(=O)CC2)c1O (stereo not drawn) | 22 | 
19 | CC(=O)c1cc(C)cc2c1O[C@H]1[C@@H](NC(=O)CCN3CCN(C)CC3)C(=O)CC[C@@]21C | 42 | 
20 | Cc1cc([N+](=O)[O-])c2c(c1)[C@]1(C)CCC(=O)[C@H](NC(=O)CCN3CCN(C)CC3)[C@@H]1O2 | > 80 | ED50 (Cavia porcellus [2]): 34 mg/kg
21 | Cc1ccc2c(c1)[C@]1(C)CCC(O)=C(C(=O)NCCN3CCN(C)CC3)[C@@H]1O2 | 61 | 
22 | Cc1ccc2c(c1)[C@]1(C)CCC(=O)[C@H](N)[C@@H]1O2 | 33 | 
23 | Cc1ccc2c(c1)[C@]1(C)CCC(=O)[C@H](NC(=O)CN3CCN(C)CC3)[C@@H]1O2 | 43 | 

Row | Compound | inhibition in vivo at 100 mg/kg (Cavia porcellus [1]) [%] | also measured
24 | Cc1ccc2c(c1)[C@]1(C)C=C(NC(=O)Cn3cccc3)C(=O)C[C@@H]1O2 | 42 | 
25 | Cc1ccc2c(c1)[C@]1(C)C=C(NC(=O)CN3CCCCC3)C(=O)C[C@@H]1O2 | 17 | 
26 | Cc1ccc2c(c1)[C@]1(C)C=C(NC(=O)CN(C)C)C(=O)C[C@@H]1O2 | 33 | 
27 | Cc1ccc2c(c1)[C@]1(C)C=C(NC(=O)CCN3CCN(C)CC3)C(=O)C[C@@H]1O2 | 25 | 
28 | Cc1ccc2c(c1)[C@]1(C)C=C(NC(=O)CCN(C)C)C(=O)C[C@@H]1O2 | 58 | 
29 | Cc1ccc2c(c1)[C@]1(C)C=C(NC(=O)CN3CCOCC3)C(=O)C[C@@H]1O2 | 31 | 
30 | Cc1ccc2c(c1)[C@]1(C)C=C(NC(=O)CN3CCOCC3)C(O)C[C@@H]1O2 (stereo partly drawn) | 29 | 
31 | Cc1ccc2c(c1)[C@]1(C)CCC(=O)[C@H](NC(=O)CN3CCCC3)[C@@H]1O2 | 17 | 
32 | CCN(CC(=O)N[C@H]1C(=O)CC[C@@]2(C)c3cc(C)ccc3O[C@@H]12)Cc1ccccc1 | 9 | 
33 | Cc1ccc2c(c1)[C@]1(C)CCC(=O)[C@H](NC(=O)CCN3CCOCC3)[C@@H]1O2 | 39 | 
34 | Cc1ccc2c(c1)[C@]1(C)CCC(=O)[C@H](NC(=O)CCN(C)C)[C@@H]1O2 | 79 | 
35 | Cc1ccc2c(c1)[C@]1(C)CCC(=O)[C@H](NC(=O)CCN3CCN(C)CC3)[C@@H]1O2.Cl | > 80 | ED50 (Cavia porcellus [2]): 32.5 mg/kg; Activity (Cavia porcellus [3]): Non-toxic; Activity (Cavia porcellus [4]): Non-toxic; Activity (Cavia porcellus [5]): Non-toxic
36 | Cc1ccc2c(c1)[C@]1(C)CCC(=O)[C@H](NC(=O)CCN3CCCC3)[C@@H]1O2 | 44 | 
37 | CCOC(=O)N1CCN(CCC(=O)N[C@H]2C(=O)CC[C@@]3(C)c4cc(C)ccc4O[C@@H]23)CC1 | 33 | 
38 | Cc1ccc2c(c1)[C@]1(C)CCC(=O)[C@H](NC(=O)CCN3CCN(c4ccccc4)CC3)[C@@H]1O2 | 54 | 
39 | Cc1ccc2c(c1)[C@]1(C)CCC(=O)[C@H](NC(=O)CCN3CCN(CCO)CC3)[C@@H]1O2 | 17 | 
40 | Cc1ccc2c(c1)[C@]1(C)CCC(=O)[C@H](NC(=O)CCN3CCN(Cc4ccccc4)CC3)[C@@H]1O2 | 33 | 
41 | Cc1ccc2c(c1)[C@]1(C)CCC(=O)[C@H](NC(=O)CCN(C)CCN(C)C)[C@@H]1O2 | 50 | 
42 | CCN(CC)CCC(=O)N[C@H]1C(=O)CC[C@@]2(C)c3cc(C)ccc3O[C@@H]12 | 33 | 
43 | Cc1ccc2c(c1)[C@]1(C)CCC(=O)[C@H](NC(=O)CCN3CCNCC3)[C@@H]1O2 | 75 | 
44 | Cc1ccc2c(c1)[C@]1(C)C=C(C(=O)NCCN3CCN(C)CC3)C(=O)C[C@@H]1O2 | 62.5 | 
45 | Cc1ccc2c(c1)[C@]1(C)CC(NC(=O)CCN3CCN(C)CC3)C(=O)C[C@@H]1O2 (stereo partly drawn) | 12.5 | 
46 | COc1ccc2c3c1O[C@H]1[C@@H](O)C=C[C@H]4[C@@H](C2)N(C)CC[C@@]341 [CODEINE] | > 80 | ED50 (Cavia porcellus [2]): 38.5 mg/kg
